Consider 13 compounds from patent US8552208B2, “Analogs of tetramic acid” (University of Tennesseee Research Foundation, priority 2007, dated 2013).

In brackets after ≈: the same amount, converted by molar mass. Where two headings read alike, the source gives them in different places. Some results are limits rather than exact numbers.

In data set [1] the test system is Bacillus subtilis ATCC 23857. The data set is described as follows: Antibacterial activity assay (MIC, broth dilution). Format: cell-based. Particulars: ATCC23857; Bacillus subtilis ATCC 23857; read-out: MIC, BS.
Data set [2] concerns Methicillin sensitive Staphylococcus aureus 8325 ATCC 35556. The data set is described as follows: Antibacterial activity assay (MIC, broth dilution). The conditions noted are these: ATCC 35556 / MSSA; Methicillin sensitive Staphylococcus aureus 8325 ATCC 35556; read-out: MIC, MSSA. It counts as cell-based. (Dilution methods test growth across graded concentrations, often in twofold steps.)

Data set [3] relates to Methicillin Resistant Staphylococcus aureus ATCC 33591. The data set is described as follows: Antibacterial activity assay (MIC, broth dilution). Format: cell-based. The conditions noted are these: ATCC 33591 / MRSA, read-out: MIC, MRSA.
The subject of data set [4] is Streptococcus pneumoniae DAW30EC. The data set is described as follows: Antibacterial activity assay (MIC, broth dilution). It counts as cell-based. Particulars: Streptococcus pneumoniae DAW30EC; read-out: MIC, SPn.
The test system of data set [5] is Mycobacterium tuberculosis H37 Rv. The data set is described as follows: Antibacterial activity assay (MIC, broth dilution). Format: cell-based. Particulars: H37RV, 168 h; Mycobacterium tuberculosis H37 Rv; […]; read-out: MIC, TB.
Data set [6] concerns Enterococcus faecalis ATCC 33186. The data set is described as follows: Antibacterial activity assay (MIC, broth dilution). It counts as cell-based. Particulars: ATCC33186; Enterococcus faecalis ATCC 33186; read-out: MIC, EF.
Data set [7] deals with Streptococcus pyogenes ATCC 700294. Kind of data set: Antibacterial activity assay (MIC, broth dilution). It counts as cell-based. The conditions noted are these: ATCC700294; Streptococcus pyogenes ATCC 700294; read-out: MIC, SP.
Data set [8] deals with Propionibacterium acnes ATCC 6919. The data set is described as follows: Antibacterial activity assay (MIC, broth dilution). The conditions noted are these: Cutibacterium acnes, ATCC6919; Propionibacterium acnes ATCC 6919; read-out: MIC, PA. Format: cell-based.
For data set [9], the system named is Bacillus anthracis Sterne 34F2. The data set is described as follows: microbe, parasite or virus in culture. Format: cell-based. The conditions noted are these: STERNE34F2, read-out: MIC, BA.
The subject of data set [10] is Vero monkey kidney cell line (ATCC, CCL-81). The data set is described as follows: Cytotoxicity assay (MTT). It counts as cell-based. Here is the method:
(§1) Cytotoxicity assays of drugs of Formula I of Example 3 and of Formula II of Example 5 were performed using the Vero monkey kidney cell line (ATCC, CCL-81). Vero cells were grown in tissue culture flasks in Dulbecco's Modified Eagle's Medium (ATCC) supplemented with 10% fetal bovine serum and maintained in a humidified incubator (37° C., 5% CO2). Cells were removed with a cell scraper, collected by centrifugation and then suspended in fresh medium at ˜10^6 cells/mL. The cell suspensions were dispensed into 96-well microtiter plates (100 μl/well) and incubated for 18 hours at 37° C. before being used for cytotoxicity assays. Test compounds were subsequently added at concentrations ranging from 400-0.024 μg/mL and 0.1% vol/vol of Triton-X 100, which causes 100% death of cells, was included as a control. After incubating cells and compounds for 72 hours in humid air (37° C., 5% CO2) the cytopathic effects of compounds were determined using the MTT Cell Proliferation Assay (ATCC, Cat No. 30-1010K). The MTT solution reagent (10 μl) was added to each well and plates incubated at 37° C. until sufficient purple color development occurred in cells (3 hours). After detergent cell lysis, the purple formazan product was measured at 570 nm in a Synergy HT Biotek microplate reader. IC50 data was obtained from dose response curves plotted from percentage activity versus log10 concentration using Graphpad prism 5.

Data set [11] can be described thus: Cytotoxicity assay (MTT). The conditions noted are these: monkey, Vero cells, 72 hours, MTT, read-out: IC50 (Cytotoxicity): Concentration which reduces viability of Vero kidney cells by 50%. Format: cell-based, monkey. Here is the method: as §1
[12] abbreviates: IC50 divided by MIC against S. aureus 8325.

Take `CCC(C)[C@H]1C(O)=C(C#N)C(=O)N1Cc1ccccc1` (stereo partly drawn) [Compound 12a, (S)-1-benzyl-5-sec-butyl-4-hydroxy-2-oxo-2,5-dihydro-1H-pyrrole-3-carbonitrile]: the MIC in [1], in [2], in data set [3], in data set [4], in [5] and in data set [6] was above 200 µg/mL in each case. The MIC in data set [7], in [8] and in data set [9] was above 200 µg/mL throughout.
Consider `CCCCCCCCCCN1C(=O)C(C#N)=C(O)[C@@H]1CC(C)C` [Compound 12b, (S)-1-decyl-4-hydroxy-5-isobutyl-2-oxo-2,5-dihydro-1H-pyrrole-3-carbonitrile], for which the MIC was determined as 50 µg/mL (≈ 156 µM) in [1]; 25 µg/mL (≈ 78 µM) in data set [2]; 25 µg/mL (≈ 78 µM) in [3]; 100 µg/mL (≈ 312 µM) in data set [4]; 3.12 µg/mL (≈ 9.74 µM) in [5]; 25 µg/mL (≈ 78 µM) in [6]. The figures for the MIC in data set [7], in data set [8] and in data set [9] were above 200 µg/mL, 12.5 µg/mL (≈ 39 µM) and 25 µg/mL (≈ 78 µM), respectively. Further, the “IC50/MIC = Selectivity (therapeutic) index” value in [10] (setting [12]) amounted to 6.1. Also, the IC50 at 72 h in data set [11] worked out at 152 µg/mL.
In the case of `N#CC1=C(O)[C@H](Cc2ccccc2)N(Cc2ccccc2)C1=O` [Compound 12c, (S)-1,5-dibenzyl-4-hydroxy-2-oxo-2,5-dihydro-1H-pyrrole-3-carbonitrile], the MIC in data set [1], in data set [2], in data set [3], in [4], in [5] and in data set [6] was above 200 µg/mL each time. The MIC in [7], in [8] and in data set [9] was above 200 µg/mL throughout.
In the case of `COc1cccc(CN2C(=O)C(C#N)=C(O)[C@@H]2CC(C)C)c1` [Compound 12d, (S)-4-hydroxy-5-isobutyl-1-(3-methoxybenzyl)-2-oxo-2,5-dihydro-1H-pyrrole-3-carbonitrile], the MIC in [1], in [2], in [3], in [4], in data set [5] and in data set [6] was above 200 µg/mL throughout. Moreover, the MIC in data set [7], in [8] and in data set [9] was above 200 µg/mL each time.
Take `CC(C)C[C@H]1C(O)=C(C#N)C(=O)N1Cc1ccc(F)cc1` [Compound 12e, (S)-1-(4-fluorobenzyl)-4-hydroxy-5-isobutyl-2-oxo-2,5-dihydro-1H-pyrrole-3-carbonitrile]: the MIC in data set [1], in data set [2], in [3], in [4], in data set [5] and in data set [6] was above 200 µg/mL in each case. Besides, the MIC in [7], in data set [8] and in [9] was above 200 µg/mL in each case.
As to `CC(C)C[C@@H]1C(O)=C(C#N)C(=O)N1Cc1ccc(F)cc1` [Compound 12f, (R)-1-(4-fluorobenzyl)-4-hydroxy-5-isobutyl-2-oxo-2,5-dihydro-1H-pyrrole-3-carbonitrile], the MIC in [1], in data set [2], in data set [3], in data set [4], in data set [5] and in data set [6] was above 200 µg/mL each time. Also, the MIC in data set [7], in data set [8] and in data set [9] was above 200 µg/mL throughout.
As to `N#CC1=C(O)[C@@H](Cc2ccccc2)N(Cc2ccccc2)C1=O` [Compound 12g, (R)-1,5-dibenzyl-4-hydroxy-2-oxo-2,5-dihydro-1H-pyrrole-3-carbonitrile], the MIC in [1], in data set [2], in [3], in data set [4], in data set [5] and in data set [6] was above 200 µg/mL in each case. For the same compound, the MIC in [7], in data set [8] and in [9] was above 200 µg/mL each time.
For `CCC(C)[C@H]1C(O)=C(C#N)C(=O)N1Cc1ccco1` (stereo partly drawn) [Compound 12p, (S)-5-sec-butyl-1-(furan-2-ylmethyl)-4-hydroxy-2-oxo-2,5-dihydro-1H-pyrrole-3-carbonitrile], the MIC in [1] was 25 µg/mL (≈ 96 µM); in data set [2] it was above 200 µg/mL; in [3], above 200 µg/mL; in [4] it was 50 µg/mL (≈ 192 µM); in data set [5] it was above 200 µg/mL; in data set [6] it was 3.12 µg/mL (≈ 12 µM). Moreover, the MIC was above 200 µg/mL in data set [7], 12.5 µg/mL (≈ 48 µM) in data set [8] and 3.12 µg/mL (≈ 12 µM) in [9]. Moreover, the “IC50/MIC = Selectivity (therapeutic) index” value in data set [10] (IC50 divided by MIC against E. faecalis (12p only)) is 2049.7. The IC50 at 72 h in [11] was found to be 6400 µg/mL.
With `CCC(C)[C@H]1C(=O)/C(=C(\C)O)C(=O)N1Cc1ccccc1` (stereo partly drawn) [Compound 13a, (S,Z)-1-benzyl-5-sec-butyl-3-(1-hydroxyethylidene)pyrrolidine-2,4-dione], the MIC in data set [1] amounted to 25 µg/mL (≈ 87 µM); in data set [2], 6.25 µg/mL (≈ 21.7 µM); in [3], 6.25 µg/mL (≈ 21.7 µM); in data set [4] it was 50 µg/mL (≈ 174 µM); in data set [5] it was 50 µg/mL (≈ 174 µM); in data set [6] it was 6.25 µg/mL (≈ 21.7 µM). Besides, the MIC in data set [7] was above 200 µg/mL; in [8], 6.25 µg/mL (≈ 21.7 µM); in [9] it was 3.12 µg/mL (≈ 10.9 µM). In addition, the “IC50/MIC = Selectivity (therapeutic) index” value in [10] (setting [12]) is recorded as 4.2. The IC50 at 72 h in data set [11] amounted to 26.3 µg/mL.
On to `C/C(O)=C1\C(=O)[C@H](Cc2ccccc2)N(Cc2ccccc2)C1=O` [Compound 13c, (S,Z)-1,5-dibenzyl-3-(1-hydroxyethylidene)pyrrolidine-2,4-dione], for which the MIC in data set [1] was 25 µg/mL (≈ 77.8 µM); in [2] it was 12.5 µg/mL (≈ 38.9 µM); in data set [3], 25 µg/mL (≈ 77.8 µM); in data set [4], 100 µg/mL (≈ 311 µM); in data set [5] it was above 200 µg/mL; in data set [6], 100 µg/mL (≈ 311 µM). In addition, the MIC was above 200 µg/mL in data set [7], 12.5 µg/mL (≈ 38.9 µM) in data set [8] and 25 µg/mL (≈ 77.8 µM) in data set [9]. In addition, the “IC50/MIC = Selectivity (therapeutic) index” value in data set [10] (setting [12]) is listed as 6.1. The IC50 at 72 h in data set [11] (Vero monkey kidney cells (ATCC CCL-81)) worked out at 75.7 µg/mL.
As for `COc1cccc(CN2C(=O)/C(=C(/C)O)C(=O)[C@@H]2CC(C)C)c1` [Compound 13d, (S,Z)-3-(1-hydroxyethylidene)-5-isobutyl-1-(3-methoxybenzyl)pyrrolidine-2,4-dione], the MIC in [1] stood at 25 µg/mL (≈ 78.8 µM); in data set [2], 12.5 µg/mL (≈ 39.4 µM); in data set [3], 25 µg/mL (≈ 78.8 µM); in data set [4], 50 µg/mL (≈ 158 µM); in data set [5], 100 µg/mL (≈ 315 µM); in data set [6] it was 100 µg/mL (≈ 315 µM). Besides, the MIC in [7] amounted to 200 µg/mL (≈ 630 µM); in data set [8] it was 12.5 µg/mL (≈ 39.4 µM); in data set [9], 25 µg/mL (≈ 78.8 µM). Further, the “IC50/MIC = Selectivity (therapeutic) index” value in data set [10] (setting [12]) is listed as 3.2. In addition, the IC50 at 72 h in [11] was 40 µg/mL.
For `C/C(O)=C1\C(=O)[C@H](CC(C)C)N(Cc2ccc(F)cc2)C1=O` [Compound 13e, (S,Z)-1-(4-fluorobenzyl)-3-(1-hydroxyethylidene)-5-isobutylpyrrolidine-2,4-dione], the MIC was 25 µg/mL (≈ 81.9 µM) in [1]; 12.5 µg/mL (≈ 40.9 µM) in data set [2]; 25 µg/mL (≈ 81.9 µM) in data set [3]; 50 µg/mL (≈ 164 µM) in data set [4]; 100 µg/mL (≈ 327 µM) in data set [5]; 50 µg/mL (≈ 164 µM) in [6]. Besides, the MIC was found to be 100 µg/mL (≈ 327 µM) in data set [7], 6.25 µg/mL (≈ 20.5 µM) in data set [8] and 12.5 µg/mL (≈ 40.9 µM) in data set [9]. Besides, the “IC50/MIC = Selectivity (therapeutic) index” value in data set [10] (setting [12]) is listed as 2.2. Further, the IC50 at 72 h in [11] turned out to be 27.8 µg/mL.
Consider `CCN1C(=O)/C(=C(/C)O)C(=O)[C@@H]1Cc1ccccc1` [Compound 13h, (S,Z)-5-benzyl-1-ethyl-3-(1-hydroxyethylidene)pyrrolidine-2,4-dione], for which the MIC is above 200 µg/mL in data set [1]; 200 µg/mL (≈ 771 µM) in data set [2]; above 200 µg/mL in data set [3]; above 200 µg/mL in data set [4]; above 200 µg/mL in [5]; above 200 µg/mL in data set [6]. Besides, the MIC in data set [7] was above 200 µg/mL; in data set [8], 100 µg/mL (≈ 386 µM); in data set [9], 50 µg/mL (≈ 193 µM).
